The results in this text go back to PMC10548512 (Chemical Science, 2023).

One may read the IC50 as the concentration needed to halve the response being measured.

Assay [1] concerns H1N1pdm09 virus (A/Netherlands/602/2009). Particulars: for IC50: 1 h.
The next assay has as its system H1 ectodomain. To be noted: pH 7.5.

On to `CC[C@H](C)[C@@H]1NC(=O)[C@H](CO)NC(=O)CNC(=O)CNC(=O)[C@H](CC(=O)O)NC(=O)[C@@H]2CCCN2C(=O)[C@H](Cc2c[nH]c3ccccc23)NC(=O)[C@H](CC(N)=O)NC(=O)[C@H](Cc2ccccc2)NC(=O)[C@H](C(C)C)NC(=O)[C@H](Cc2ccccc2)NC(=O)[C@H](CC(C)C)NC(=O)[C@@H]2CSC(=N2)c2cc(ccn2)C[C@@H](C(=O)NCC(N)=O)NC(=O)[C@H](CCCCN)NC(=O)[C@H](CC(N)=O)NC(=O)[C@H]([C@@H](C)O)NC1=O` [M5], for which, in assay [1], the “Infection inhibition in single-concentration screen” value was “clear infection inhibition”, the “Plateau of infection inhibition in dose-response” value is listed as “plateau at less than full inhibition” and the 50% inhibitory concentration (IC50) amounted to 40.3 nM. Further, in the assay with H1 ectodomain, the “Competition with fluorescein-labelled S5 for binding to H1 protein” value is given as “compete”.
The matching figures for `CC[C@H](C)[C@@H]1NC(=O)CNC(=O)[C@H](CC(N)=O)NC(=O)[C@@H]2CCCN2C(=O)[C@H](C(C)C)NC(=O)[C@H](Cc2ccccc2)NC(=O)[C@H](Cc2ccc(O)cc2)NC(=O)[C@@H]2CCCN2C(=O)[C@H](Cc2ccccc2)NC(=O)[C@H](Cc2ccc(O)cc2)NC(=O)[C@H](CC(C)C)NC(=O)[C@@H]2CSC(=N2)c2cc(ccn2)C[C@@H](C(=O)NCC(N)=O)NC(=O)[C@H](CCC(=O)O)NC(=O)[C@H](CC(C)C)NC(=O)[C@H]([C@@H](C)CC)NC(=O)[C@H](CC(N)=O)NC1=O` [M7]: “clear infection inhibition”, “plateau at less than full inhibition”, 10.8 nM and “compete”.
